Consider one compound from patent US20020197365A1, “Highly acidic metalated mixture of inorganic acids” (priority 2001, published 2002).

The conditions of the series: in vivo.

`O=S(=O)(O)O` [sulfuric acid]: the “irritation or injury of a hand put into the solution” value is listed as “an irritation would occur within a relatively short span of time”.
